The values that follow are results of earlier work, collected in patent US7429390B2, “Stable pharmaceutical compositions, processes for making the same and methods of their use” (priority 2007, dated 2008).

Read-outs that look alike come from different tables or passages of the source.

As to `CNC(=C[N+](=O)[O-])NCCSCc1ccc(CN(C)C)o1` [compound of Formula I, N-[2-[[[5-(dimethylamino)methyl-2-furanyl]methyl]thio]ethyl]-N′-methyl-2-nitro-1,1-ethenediamine], the “time to symptomatic relief” value (GERD, after starting therapy with 150 mg b.i.d.) is at most 24 h. For the same compound, for the setting “endoscopically diagnosed erosive esophagitis, therapy initiation with 150 mg b.i.d.”, the “time to symptomatic relief of heartburn” value was at most 24 h. Further, the “time in which most patients heal” value by setting is: (short-term treatment of active duodenal ulcer) at most 4 weeks; (short-term treatment of active, benign gastric ulcer) at most 6 weeks.
